PubChem BioAssay AID1259407 (Chemical Carcinogenesis Research Information System (CCRIS), 2018)
Active and inactive are the calls of the source. How the calls were made is not given here.

Test system: CCRIS mutagenicity, Ames/micronucleus/aberration tests
Experiment: CCRIS mutagenicity studies
[1] = Test System: AMES SALMONELLA TYPHIMURIUM, Strain/Indicator: TA98, Metabolic Activation: RAT, LIVER, S-9, AROCLOR 1254, Method: STANDARD PLATE
[2] = Test System: AMES SALMONELLA TYPHIMURIUM, Strain/Indicator: TA100, Metabolic Activation: RAT, LIVER, S-9, AROCLOR 1254, Method: STANDARD PLATE
[3] = Test System: AMES SALMONELLA TYPHIMURIUM, Strain/Indicator: TA98, Metabolic Activation: NONE, Method: PREINCUBATION
[4] = Test System: AMES SALMONELLA TYPHIMURIUM, Strain/Indicator: TA100, Metabolic Activation: NONE, Method: PREINCUBATION
[5] = Test System: AMES SALMONELLA TYPHIMURIUM, Strain/Indicator: TA1535, Metabolic Activation: NONE, Method: PREINCUBATION
[6] = Test System: AMES SALMONELLA TYPHIMURIUM, Strain/Indicator: TA1537, Metabolic Activation: NONE, Method: PREINCUBATION
[7] = Test System: AMES SALMONELLA TYPHIMURIUM, Strain/Indicator: TA100, Metabolic Activation: NONE, Method: STANDARD PLATE

Cc1c(C)c([N+](=O)[O-])c(C(C)(C)C)c([N+](=O)[O-])c1C
mutagenic call (Test System: AMES SALMONELLA TYPHIMURIUM, Strain/Indicator: TA98, Metabolic Activation: RAT, LIVER, S-9, AROCLOR 1254, Method: PREINCUBATION): inactive; negative | mutagenic call [1]: inactive; negative | mutagenic call (Test System: AMES SALMONELLA TYPHIMURIUM, Strain/Indicator: TA100, Metabolic Activation: RAT, LIVER, S-9, AROCLOR 1254, Method: PREINCUBATION): inactive; negative | mutagenic call [2]: inactive; negative

CN(C)c1ncnc2nc[nH]c12
mutagenic call [3]: inactive; negative | mutagenic call (Test System: AMES SALMONELLA TYPHIMURIUM, Strain/Indicator: TA98, Metabolic Activation: RAT, LIVER, S9, Method: PREINCUBATION): inactive; negative | mutagenic call [4]: inactive; negative | mutagenic call (Test System: AMES SALMONELLA TYPHIMURIUM, Strain/Indicator: TA100, Metabolic Activation: RAT, LIVER, S9, Method: PREINCUBATION): inactive; negative | mutagenic call [5]: active; positive | mutagenic call (Test System: AMES SALMONELLA TYPHIMURIUM, Strain/Indicator: TA1535, Metabolic Activation: RAT, LIVER, S9, Method: PREINCUBATION): active; positive | mutagenic call [6]: inactive; negative | mutagenic call (Test System: AMES SALMONELLA TYPHIMURIUM, Strain/Indicator: TA1537, Metabolic Activation: RAT, LIVER, S9, Method: PREINCUBATION): inactive; negative | mutagenic call (Test System: E. COLI, Strain/Indicator: WP2UVRA, Metabolic Activation: NONE, Method: PREINCUBATION): inactive; negative | mutagenic call (Test System: E. COLI, Strain/Indicator: WP2UVRA, Metabolic Activation: RAT, LIVER, S9, Method: PREINCUBATION): inactive; negative

O=[N+]([O-])c1ccc2c(ccc3cc4c(ccc5ccccc54)cc32)c1
mutagenic call (Test System: AMES SALMONELLA TYPHIMURIUM, Strain/Indicator: TA98(1,8-DNP6), Metabolic Activation: NONE): active; positive | mutagenic call (Test System: AMES SALMONELLA TYPHIMURIUM, Strain/Indicator: TA98(1,8-DNP6), Metabolic Activation: RAT, LIVER, S-9, AROCLOR 1254): active; positive | mutagenic call (Test System: AMES SALMONELLA TYPHIMURIUM, Strain/Indicator: TA98(NR), Metabolic Activation: NONE): active; positive | mutagenic call (Test System: AMES SALMONELLA TYPHIMURIUM, Strain/Indicator: TA98(NR), Metabolic Activation: RAT, LIVER, S-9, AROCLOR 1254): active; positive | mutagenic call (Test System: AMES SALMONELLA TYPHIMURIUM, Strain/Indicator: TA98, Metabolic Activation: NONE): active; positive | mutagenic call (Test System: AMES SALMONELLA TYPHIMURIUM, Strain/Indicator: TA98, Metabolic Activation: RAT, LIVER, S-9, AROCLOR 1254): active; positive | mutagenic call (Test System: AMES SALMONELLA TYPHIMURIUM, Strain/Indicator: TA100(NR), Metabolic Activation: NONE): inactive; negative | mutagenic call (Test System: AMES SALMONELLA TYPHIMURIUM, Strain/Indicator: TA100(NR), Metabolic Activation: RAT, LIVER, S-9, AROCLOR 1254): active; positive | mutagenic call (Test System: AMES SALMONELLA TYPHIMURIUM, Strain/Indicator: TA100, Metabolic Activation: NONE): inactive; negative | mutagenic call (Test System: AMES SALMONELLA TYPHIMURIUM, Strain/Indicator: TA100, Metabolic Activation: RAT, LIVER, S-9, AROCLOR 1254): active; positive | mutagenic call (Test System: AMES SALMONELLA TYPHIMURIUM, Strain/Indicator: TA104, Metabolic Activation: NONE): inactive; negative | mutagenic call (Test System: AMES SALMONELLA TYPHIMURIUM, Strain/Indicator: TA104, Metabolic Activation: RAT, LIVER, S-9, AROCLOR 1254): active; positive

COCC(=O)O
mutagenic call (Test System: AMES SALMONELLA TYPHIMURIUM, Strain/Indicator: TA97A, Metabolic Activation: NONE, Method: STANDARD PLATE): inactive; negative | mutagenic call (Test System: AMES SALMONELLA TYPHIMURIUM, Strain/Indicator: TA97A, Metabolic Activation: RAT, LIVER, S-9, AROCLOR 1254, Method: STANDARD PLATE): inactive; negative | mutagenic call (Test System: AMES SALMONELLA TYPHIMURIUM, Strain/Indicator: TA98, Metabolic Activation: NONE, Method: STANDARD PLATE): inactive; negative | mutagenic call [1]: inactive; negative | mutagenic call [7]: inactive; negative | mutagenic call [2]: inactive; negative | mutagenic call (Test System: AMES SALMONELLA TYPHIMURIUM, Strain/Indicator: TA102, Metabolic Activation: NONE, Method: STANDARD PLATE): inactive; negative | mutagenic call (Test System: AMES SALMONELLA TYPHIMURIUM, Strain/Indicator: TA102, Metabolic Activation: RAT, LIVER, S-9, AROCLOR 1254, Method: STANDARD PLATE): inactive; negative | mutagenic call (Test System: CHINESE HAMSTER OVARY, Strain/Indicator: CHO AS52 (GPT)/6-THIOGUANINE, Metabolic Activation: NONE): inactive; negative | mutagenic call (Test System: CHINESE HAMSTER OVARY, Strain/Indicator: CHO-K1-BH4 (HGPRT)/6-THIOGUANINE, Metabolic Activation: NONE): inactive; negative | mutagenic call (Test System: CHINESE HAMSTER OVARY, Strain/Indicator: CHO-K1-BH4 (HGPRT)/6-THIOGUANINE, Metabolic Activation: RAT, LIVER, S-9, AROCLOR 1254): inactive; negative

COc1ccc(CO)cc1
mutagenic call [7]: inactive; negative

Cc1oc(=O)oc1COC(=O)[C@@H]1N2C(=O)[C@@H](NC(=O)[C@H](N)c3ccccc3)[C@H]2SC1(C)C
mutagenic call [3]: inactive; negative | mutagenic call (Test System: AMES SALMONELLA TYPHIMURIUM, Strain/Indicator: TA98, Metabolic Activation: RAT, LIVER, S-9, PHENOBARBITAL AND 5,6-BENZOFLAVONE, Method: PREINCUBATION): inactive; negative | mutagenic call [4]: inactive; negative | mutagenic call (Test System: AMES SALMONELLA TYPHIMURIUM, Strain/Indicator: TA100, Metabolic Activation: RAT, LIVER, S-9, PHENOBARBITAL AND 5,6-BENZOFLAVONE, Method: PREINCUBATION): inactive; negative | mutagenic call [5]: inactive; negative | mutagenic call (Test System: AMES SALMONELLA TYPHIMURIUM, Strain/Indicator: TA1535, Metabolic Activation: RAT, LIVER, S-9, PHENOBARBITAL AND 5,6-BENZOFLAVONE, Method: PREINCUBATION): inactive; negative | mutagenic call [6]: inactive; negative | mutagenic call (Test System: AMES SALMONELLA TYPHIMURIUM, Strain/Indicator: TA1537, Metabolic Activation: RAT, LIVER, S-9, PHENOBARBITAL AND 5,6-BENZOFLAVONE, Method: PREINCUBATION): inactive; negative | mutagenic call (Test System: AMES SALMONELLA TYPHIMURIUM, Strain/Indicator: TA1538, Metabolic Activation: NONE, Method: PREINCUBATION): inactive; negative | mutagenic call (Test System: AMES SALMONELLA TYPHIMURIUM, Strain/Indicator: TA1538, Metabolic Activation: RAT, LIVER, S-9, PHENOBARBITAL AND 5,6-BENZOFLAVONE, Method: PREINCUBATION): inactive; negative | mutagenic call (Test System: E. COLI, Strain/Indicator: WP2 UVRA, Metabolic Activation: NONE, Method: PREINCUBATION): inactive; negative | mutagenic call (Test System: E. COLI, Strain/Indicator: WP2 UVRA, Metabolic Activation: RAT, LIVER, S-9, AROCLOR 1254, Method: PREINCUBATION): inactive; negative

COC(=O)C1=C(C)NC(C)=C(C(=O)OCC(C)=O)C1c1ccccc1[N+](=O)[O-] (stereo not given)
mutagenic call [3]: inactive; negative | mutagenic call (Test System: AMES SALMONELLA TYPHIMURIUM, Strain/Indicator: TA98, Metabolic Activation: S-9, Method: PREINCUBATION): inactive; negative | mutagenic call [4]: inactive; negative | mutagenic call (Test System: AMES SALMONELLA TYPHIMURIUM, Strain/Indicator: TA100, Metabolic Activation: S-9, Method: PREINCUBATION): inactive; negative | mutagenic call [5]: inactive; negative | mutagenic call (Test System: AMES SALMONELLA TYPHIMURIUM, Strain/Indicator: TA1535, Metabolic Activation: S-9, Method: PREINCUBATION): inactive; negative | mutagenic call [6]: inactive; negative | mutagenic call (Test System: AMES SALMONELLA TYPHIMURIUM, Strain/Indicator: TA1537, Metabolic Activation: S-9, Method: PREINCUBATION): inactive; negative | mutagenic call (Test System: E.COLI, Strain/Indicator: WP2 UVRA, Metabolic Activation: NONE, Method: PREINCUBATION): inactive; negative | mutagenic call (Test System: E.COLI, Strain/Indicator: WP2 UVRA, Metabolic Activation: S-9, Method: PREINCUBATION): inactive; negative
